The values below come from paper PMC3281083, “Impact of the Herbal Medicine Sophora flavescens on the Oral Pharmacokinetics of Indinavir in Rats: The Involvement of CYP3A and P-Glycoprotein” (PLoS ONE, 2012).

Each structure is given as a SMILES string. Like-named read-outs stand apart in the source and are kept apart here.

In general, CL/F refers to the apparent clearance, not corrected for the fraction that reaches the circulation. One may read the Cmax as the highest concentration seen after dosing.

Details of data set [1]: method as in PMID 15771225. The following applies: low solubility/high permeability/extensive metabolism; cited from earlier work.
Details of data set [2]: method as in PMID 10604964, PMID 10497146. Conditions: rats; cited from earlier work.
Data set [3] in a line: Multiple-dose oral pharmacokinetics of indinavir (plasma) with co-administered Sophora preparations. In kind it is in vivo, Male Wistar rats. Conditions: male, Wistar, rat, 40 mg/kg; for AUC(0-inf) / CL/F / Cmax / Tmax: po; for AUC(0-inf): read-out: AUC0-∞ of indinavir. The protocol: Thirty rats were randomly designated as vehicle control, low-dose and high-dose Sophora treatment groups (ten rats in each group). A separate experiment was performed using eighteen rats designated as vehicle control, oxymatrine capsule and Sophora EA fraction groups (six rats in each group). […] Indinavir from […]® capsule (Merck & CO. Inc., Whitehouse Station, NJ, USA) was dissolved in 50 mM citric acid, and the oxymatrine capsule contents were dissolved in distilled water. […] The treatments were given twice a day (9 a.m. and 7 p.m.) for 7 consecutive days. The dosages were designed on the basis of clinical doses in human. The daily dose of S. flavescens recommended by the Chinese Pharmacopoeia is 4.5-9 g of raw herb per day. […] Taking the low and high ends of these dose ranges, and using a conversion based on the body-surface-area ratio between rats and human, an animal dose range of 0.45-1.8 g/kg/day (raw herb equivalent) was estimated for experimental rats. […] Plasma was obtained by centrifugation at 7,000× g for 15 min at 4°C and frozen at -80°C prior to analysis. […] Organ tissues, including liver and intestine, were isolated, rinsed with saline, blotted dried, snap-frozen in liquid nitrogen, and stored at -80°C until use. […] Midazolam was used as the internal standard. […] The residues were reconstituted with 200 μL of methanol-water (v/v, 1∶1) solution. The faeces were homogenized in about 4-fold volume of distilled water. The homogenates were extracted with equal volume of acetonitrile. After centrifugation, 1 mL of the supernatant was transferred to a glass tube, and was subsequently subjected to addition of midazolam, alkalization, extraction with ethyl acetate, drying and reconstitution. All reconstituted samples (60 μL) were separated on a Prevail C18 column (250 mm×4.6 mm […]) by an Agilent 1100 HPLC system (Agilent Technologies, Santa Clara, CA, USA). The flow rate was 0.8 mL/min. […] The effluent was introduced to APCI-MS (Agilent 1100 series LC/MSD Trap SL system, Santa Clara, CA, USA) with positive detection mode. […] Extract ion chromatograms at m/z 614 (indinavir) and m/z 326 (midazolam) were used for quantification (Figure S1). Quantification of indinavir was performed on six levels of standards in blank plasma or faeces homogenate. […] The recovery of the analyte ranged from 80% to 90%. […] The area under the plasma concentration-time curves from zero to infinity (AUC0-∞) was calculated by the trapezoidal rules. Clearance (CL) was calculated by the equation (F×Dose)/AUC0-∞, where F is the fraction of dose available in the systemic circulation. Peak plasma concentration (Cmax) and the time when it occurred (T max) were derived directly from the curves. Statistical differences were determined by unpaired Student's t test or one-way analysis of variance (one-way ANOVA) followed by Dunnett's post test. All tests were two-tailed and the significance was set at P<0.05.

Setting [4] is: indinavir 40 mg/kg orally, multiple dosage, with EA fraction 0.164 g/kg/day, mean ± S.E.M.
Setting [5] is: indinavir 40 mg/kg orally, multiple dosage, with Oxymatrine (capsule) 90 mg/kg/day, mean ± S.E.M.
[6] abbreviates: indinavir 40 mg/kg orally, multiple dosage, with Sophora extract 0.316 g/kg/day, mean ± S.E.M.
Where [7] appears, read: indinavir 40 mg/kg orally, multiple dosage, with Sophora extract 1.26 g/kg/day, mean ± S.E.M.
[8] abbreviates: indinavir 40 mg/kg orally, multiple dosage, with vehicle control, mean ± S.E.M.

For the molecule `CC(C)(C)NC(=O)[C@@H]1CN(Cc2cccnc2)CCN1C[C@@H](O)C[C@@H](Cc1ccccc1)C(=O)N[C@H]1c2ccccc2C[C@H]1O` [indinavir], the “Metabolic (drug disposition) class” value in data set [1] was “Class 2”. Besides, the Oral bioavailability in data set [2] is recorded as 26%. Also, the C0 in data set [3] (oral, day 8, before last indinavir dose, detectable, below limit of quantification, read-out: Plasma indinavir concentration at time zero) is less than 50 ng/mL. Further, the AUC(0-inf) came out at 16100 ± 990 ng·h/mL in data set [3] (indinavir 40 mg/kg orally twice a day for 7 days, last dose day 8, with vehicle control (1.5% Tween 80), mean ± S.E.M.); 12300 ± 1310 ng·h/mL in data set [3] (setting [4]); 5290 ± 1110 ng·h/mL in data set [3] (setting [5]); 7230 ± 870 ng·h/mL in data set [3] (setting [6]); 2780 ± 610 ng·h/mL in data set [3] (setting [7]). For the same molecule, the CL/F in data set [3] (setting [4]) is 57.6 mL/min/kg; in data set [3] (setting [5]), 159 mL/min/kg; in data set [3] (setting [6]), 101 mL/min/kg; in data set [3] (setting [7]) it was 316 mL/min/kg; in data set [3] (setting [8]), 42.8 mL/min/kg. Moreover, the Cmax in data set [3] (setting [4]) turned out to be 8410 ± 860 ng/mL; in data set [3] (setting [5]) it was 4970 ± 810 ng/mL; in data set [3] (setting [6]), 7170 ± 690 ng/mL; in data set [3] (setting [7]) it was 3090 ± 1080 ng/mL; in data set [3] (setting [8]), 11500 ± 670 ng/mL. Moreover, the Tmax in data set [3] (indinavir 40 mg/kg orally, multiple dosage, with EA fraction 0.164 g/kg/day, mean ± S.E.M., read-out: T max of indinavir) is 40.2 ± 9 min; in data set [3] (indinavir 40 mg/kg orally, multiple dosage, with Oxymatrine (capsule) 90 mg/kg/day, mean ± S.E.M., read-out: T max of indinavir), 25.2 ± 7.2 min; in data set [3] (indinavir 40 mg/kg orally, multiple dosage, with Sophora extract 0.316 g/kg/day, mean ± S.E.M., read-out: T max of indinavir) it was 37.2 ± 7.2 min; in data set [3] (indinavir 40 mg/kg orally, multiple dosage, with Sophora extract 1.26 g/kg/day, mean ± S.E.M., read-out: T max of indinavir) it was 30 ± 11.4 min; in data set [3] (indinavir 40 mg/kg orally, multiple dosage, with vehicle control, mean ± S.E.M., read-out: T max of indinavir), 30 ± 6 min; in data set [3] (oral, read-out: T max of indinavir determined in our study) it was 30 to 37 min.
